Data reported in patent publication US20060063736A1, “Compositions and methods for inhibiting mucin-type O-linked glycosylation” (priority 2004, published 2006).

Legend:
rppGalNAcT-5 = target: T1, rppGalNAcT-5 (Rattus norvegicus, UniProt O88422); test: Radiolabel capture assay, rppGalNAcT-5; format: biochemical; conditions: α-FLAG purified enzyme
T1 construct: plasmids encoding truncated secreted ppGalNAcTs-1 to −5, -7, -10 and -11; FLAG; made in house; host or cells: COS-7
T1 sequence (O88422 36-930 limits assumed): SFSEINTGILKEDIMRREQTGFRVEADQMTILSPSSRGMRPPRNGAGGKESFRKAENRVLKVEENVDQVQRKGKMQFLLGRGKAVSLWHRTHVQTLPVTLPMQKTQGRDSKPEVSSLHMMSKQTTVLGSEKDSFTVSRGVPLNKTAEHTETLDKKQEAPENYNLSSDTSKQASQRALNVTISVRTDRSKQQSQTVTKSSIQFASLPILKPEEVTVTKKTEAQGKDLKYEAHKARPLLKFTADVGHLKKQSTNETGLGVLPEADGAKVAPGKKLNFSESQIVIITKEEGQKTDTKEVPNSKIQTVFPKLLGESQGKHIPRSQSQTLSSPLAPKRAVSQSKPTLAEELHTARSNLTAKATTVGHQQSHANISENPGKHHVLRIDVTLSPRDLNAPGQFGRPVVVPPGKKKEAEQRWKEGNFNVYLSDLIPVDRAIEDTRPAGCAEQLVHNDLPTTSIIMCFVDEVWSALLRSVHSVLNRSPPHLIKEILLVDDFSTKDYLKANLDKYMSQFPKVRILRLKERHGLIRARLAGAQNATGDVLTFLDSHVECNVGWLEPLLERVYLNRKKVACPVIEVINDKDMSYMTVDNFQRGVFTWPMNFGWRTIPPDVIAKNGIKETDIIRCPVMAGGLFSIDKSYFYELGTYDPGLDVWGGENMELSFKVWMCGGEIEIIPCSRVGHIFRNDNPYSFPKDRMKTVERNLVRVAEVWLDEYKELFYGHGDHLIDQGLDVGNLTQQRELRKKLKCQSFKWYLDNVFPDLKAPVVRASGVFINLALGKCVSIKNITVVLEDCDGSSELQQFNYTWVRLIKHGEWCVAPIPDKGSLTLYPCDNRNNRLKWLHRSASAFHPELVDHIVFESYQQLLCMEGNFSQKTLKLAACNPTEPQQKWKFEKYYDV
Procedure: Radiolabel capture assays using ^14C-labeled UDP-GalNAc were performed as previously described with various concentrations of 1-68A or 2-68A in 2% DMSO. Ten Hagen et al. (2001) J. Biol. Chem. 276:17395-17404.
Table 1. IC50 values for 1-68A and 2-68A with ppGalNAcTs-1 to −5, -7, -10, -11, β1-4GalT and α1-3GalT. The requirement of glycopeptides as substrates for ppGalNAcT-7 and -10 precluded the use of the ELLA, as both the substrate and product bind HPA-HRP. Thus, the radiolabel capture assay was employed to measure the IC50 values of 1-68A and 2-68A with ppGalNAcT-7 and -10 using MUC5AC (GTTPSPVPTTSTTSAP; SEQ ID NO:15) glycopeptide, previously shown to be substrate for both enzymes. Ten Hagen et al. (1999) J. Biol. Chem. 274:27867-27874; and Ten Hagen et al. (2001) J. Biol. Chem. 276:17395-17404. IC50 values of 1-68A and 2-68A with ppGalNAcT-5 were performed with α-FLAG purified enzyme and radiolabel capture assay, due to low activity and stability of the crude enzyme. m=murine, r=rattus.

[1] = target: T2, β1-4galactosyltransferase (β1-4GalT) (Bos taurus, UniProt P08037); test: Continuous assay for β1-4GalT activity; format: biochemical, bovine; conditions: for inhibitory activity against β1-4GalT: highest concentration tested (500 μM)
T2 construct: purchased Calbiochem
T2 sequence (P08037 1-402): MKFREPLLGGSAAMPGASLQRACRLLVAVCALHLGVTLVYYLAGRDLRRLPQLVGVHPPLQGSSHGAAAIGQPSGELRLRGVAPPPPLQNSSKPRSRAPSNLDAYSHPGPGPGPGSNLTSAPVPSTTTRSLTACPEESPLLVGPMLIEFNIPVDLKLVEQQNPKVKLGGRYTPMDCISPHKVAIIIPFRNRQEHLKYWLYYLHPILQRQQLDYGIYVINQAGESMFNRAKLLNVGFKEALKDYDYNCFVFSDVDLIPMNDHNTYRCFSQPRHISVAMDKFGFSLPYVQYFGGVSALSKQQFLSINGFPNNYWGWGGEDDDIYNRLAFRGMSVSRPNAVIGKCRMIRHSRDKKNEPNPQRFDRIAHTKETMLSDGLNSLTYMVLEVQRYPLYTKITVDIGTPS
Procedure: The enzymatic reactions contained the following components in a final volume of 100 μL: 20 mM MnCl2, 100 mM sodium cacodylate, pH 6.5, 5 U of pyruvate kinase, 5 U of lactate dehydrogenase, 2 mM PEP, 0.2 mM NADH with 0.4 mU of β1-4GalT, 1 mM βOMeGlcNAc, 25 μM UDP-Gal or 1.0 mU of α1-3GalT, 1 mM LacNAc, 100 μM UDP-Gal and various concentrations of 1-68A or 2-68A in 2.5% DMSO. The reaction mixtures were incubated at 37° C. for 10 min before the reaction was initiated by the addition of UDP-Gal. The change in absorbance was monitored over 20 min at 340 nm.
To determine the selectivity of the compounds among the broader family of UDP-sugar utilizing enzymes, 1-68A and 2-68A were tested against bovine β1-4galactosyltransferase (β1-4GalT) and porcine α1-3galactosyltransferase (α1-3GalT), using a previously reported continuous colorimetric assay. Fitzgerald et al. (1970) Anal. Biochem. 36:43-61. Neither compound was active against β1-4GalT or α1-3GalT at the highest concentration tested (500 μM) (Entries 9 and 10, Table 1).

Structure (SMILES) | IC50 (rppGalNAcT-5) [µM] | IC50 [1] [µM] | inhibitory activity against β1-4GalT [1]
O=c1ccn([C@@H]2O[C@H](CON=Cc3ccc(O)c(O)c3O)[C@@H](O)[C@H]2O)c(=O)[nH]1 [1-68A] | 20 ± 2 | > 500 | lack of inhibitory activity
O=C(CON=Cc1ccc(O)c(O)c1O)NC[C@H]1O[C@@H](n2ccc(=O)[nH]c2=O)[C@H](O)[C@@H]1O [2-68A] | 26 ± 9 | > 500 | lack of inhibitory activity
